Tests used:
[1] = Vapour sorption analysis (GVS, hygroscopicity); type: physicochemical; details: % uptake at 90% RH
Protocol: Approximately 10 mg of the sample was placed into a mesh vapor sorption balance pan and loaded into an IGASorp Moisture Sorption Analyzer balance by Hiden Analytical. The sample was subjected to a ramping profile from 40 to 90% relative humidity (RH) at 10% increments to 90% RH, maintaining the sample at each step until a stable weight had been achieved (98% step completion). After completion of the sorption cycle, the sample was dried using the same procedure (initially from 90% RH to 0% RH and finally taken back to the starting point of 40% RH). The sorption/desorption profiles were then repeated to give a double-cycle plot. The weight changes during the sorption/desorption cycles were plotted, allowing for the hygroscopic nature of the sample to be determined.

[2] = Stability stress testing (ambient light, 40° C./75% RH, 80° C., 7 days; XRPD and HPLC purity); type: physicochemical; details: for XRPD after storage: 7 days; for Purity, 40° C./75% RH / Purity, 80° C. / Purity, Ambient light: HPLC purity after 7 days, open vial; for Purity, Ambient light: room temperature; for Input purity: HPLC purity before stress storage; for Chemical Stability: summary in Table 17
Protocol: Approximately 5 mg of the appropriate samples were placed into 2 mL clear glass vials and the vials were all stored open under the conditions of ambient light, 40° C./75% RH, and 80° C. for 7 days, respectively. The ambient light sample was left open on the bench at room temperature. The 80° C. sample was placed open into an 80° C. oven.

[3] = Thermodynamic aqueous solubility studies (de-ionized water, 24 h, HPLC concentration, filtrate pH, XRPD of solid); details: for solubility at 24 h: de-ionized water, pH 6.97, water, thermodynamic from solid; for pH at Saturation: pH of filtrate after 24 h slurry in de-ionized water (pH 6.97), ambient temperature
Protocol: The resulting solid material was isolated by centrifugation and analyzed by XRPD, while the filtrate was analyzed by HPLC for concentration determination. The pH of the resulting filtrate was also determined.

[4] = system: advanced NSCLC (EGFR exon 20 insertions); assay: Phase 1/2 study, antitumor activity / disease assessment by RECIST v1.1; type: in vivo, human; details: 160 mg QD
Protocol: 52 patients were enrolled as of 30 Jan. 2018.
Disease stabilization started to be reported at the 40 mg QD cohort. Disease assessments for patients who had at least one disease assessment following treatment with Compound (A) are shown in Table 21. All patients who responded have EGFR exon 20 insertion mutations and had previously been treated with platinum-based chemotherapy, EGFR TKIs, or PD-1 inhibitors.

[5] = Phase 1/2 study, safety (adverse events, dose limiting toxicities, MTD); details: human, in vivo
Protocol: Patients with advanced NSCLC refractory to standard therapy received daily oral doses (5-120 mg) of Compound (A) in the dose-escalation phase. Compound (A) was provided as polymorphic Form-I of the succinate salt of Compound (A). Compound (A) was formulated as a drug-in-capsule with no excipients and administered orally. Preliminary antitumor activity (by RECIST v1.1), safety and pharmacokinetics are reported for patients receiving at least one dose.
As part of the same phase ½ study as described in Example 12, a dose escalation study was performed. […] 2018.
The phase 2 portion of the study was initiated to expand the study in two 160 mg QD cohorts (EGFR exon 20 mutant NSCLC patients with or without brain metastases) and continue to enroll more patients in the 120 mg cohort.

[6] = all storage conditions (ambient light, 40° C./75% RH, 80° C.)
[7] = Solubility in Water, de-ionized water (pH 6.97), slurry shaken at ambient temperature for 24 h, filtrate by HPLC, salts of Compound (A)
[8] = other 2 conditions (40° C./75% RH and 80° C.)
[9] = number of the 26 patients in efficacy analysis

| Compound | GVS (Hygroscopicity) [1] | XRPD after storage [2, 6] | Purity, 40° C./75% RH [2] | Purity, 80° C. [2] | Purity, Ambient light ([2]; ambient light) | Input purity [2] | Chemical Stability [2] | solubility at 24 h [3, 7] | pH at Saturation [3] | XRPD after storage ([2]; ambient light) | further results |
| --- | --- | --- | --- | --- | --- | --- | --- | --- | --- | --- | --- |
| Br.C=CC(=O)Nc1cc(Nc2ncc(C(=O)OC(C)C)c(-c3cn(C)c4ccccc34)n2)c(OC)cc1N(C)CCN(C)C [HBr, isopropyl 2-((5-acrylamido-4-((2-(dimethylamino)ethyl) (methyl)amino)-2-methoxyphenyl)amino)-4-(1-methyl-1H-indol-3-yl)pyrimidine-5-carboxylate hydrobromide] | 0.6% | No change under all storage | 99.6 | 99.5 | 99.6 | 99.7 | Stable | 100 µg/mL | 6.30 |  |  |
| C=CC(=O)Nc1cc(Nc2ncc(C(=O)OC(C)C)c(-c3cn(C)c4ccccc34)n2)c(OC)cc1N(C)CCN(C)C.CS(=O)(=O)O [Mesylate, isopropyl 2-((5-acrylamido-4-((2-(dimethylamino)ethyl) (methyl)amino)-2-methoxyphenyl)amino)-4-(1-methyl-1H-indol-3-yl)pyrimidine-5-carboxylate mesylate] | Drying Form |  | 99.6 | 99.6 | 99.6 | 99.7 | Stable | > 70000 µg/mL | 2.90 | No change at ambient light; |  |
| C=CC(=O)Nc1cc(Nc2ncc(C(=O)OC(C)C)c(-c3cn(C)c4ccccc34)n2)c(OC)cc1N(C)CCN(C)C [Free Base, isopropyl 2-((5-acrylamido-4-((2-(dimethylamino)ethyl) (methyl)amino)-2-methoxyphenyl)amino)-4-(1-methyl-1H-indol-3-yl)pyrimidine-5-carboxylate] | 0.3% |  | 99.5 | 99.5 | 99.5 |  |  |  | 7.81 |  | solubility at 24 h [3]: < 10 µg/mL |
| C=CC(=O)Nc1cc(Nc2ncc(C(=O)OC(C)C)c(-c3cn(C)c4ccccc34)n2)c(OC)cc1N(C)CCN(C)C.O=S(=O)(O)O [Sulfate, isopropyl 2-((5-acrylamido-4-((2-(dimethylamino)ethyl) (methyl)amino)-2-methoxyphenyl)amino)-4-(1-methyl-1H-indol-3-yl)pyrimidine-5-carboxylate sulfate] | 11% |  | 96.2 | 94.9 | 98.6 | 98.3 | Degradation |  | 2.19 | No change at ambient light; | solubility at 24 h [3]: > 240000 µg/mL |
| isopropyl 2-((5-acrylamido-4-((2-(dimethylamino)ethyl) (methyl)amino)-2-methoxyphenyl)amino)-4-(1-methyl-1H-indol-3-yl)pyrimidine-5-carboxylate hippurate | 0.2% | No change under all storage |  | 99.6 | 99.6 | 99.7 | Stable |  |  |  |  |
| C=CC(=O)Nc1cc(Nc2ncc(C(=O)OC(C)C)c(-c3cn(C)c4ccccc34)n2)c(OC)cc1N(C)CCN(C)C.O=C(O)/C=C/C(=O)O [Fumarate, isopropyl 2-((5-acrylamido-4-((2-(dimethylamino)ethyl) (methyl)amino)-2-methoxyphenyl)amino)-4-(1-methyl-1H-indol-3-yl)pyrimidine-5-carboxylate fumarate] | 2.0% | No change under all storage | 99.5 | 99.5 | 99.5 | 99.7 | Stable | 100 µg/mL | 3.98 |  |  |
| C=CC(=O)Nc1cc(Nc2ncc(C(=O)OC(C)C)c(-c3cn(C)c4ccccc34)n2)c(OC)cc1N(C)CCN(C)C.O=C(O)C(=O)O [Oxalate, isopropyl 2-((5-acrylamido-4-((2-(dimethylamino)ethyl) (methyl)amino)-2-methoxyphenyl)amino)-4-(1-methyl-1H-indol-3-yl)pyrimidine-5-carboxylate oxalate] | 2.0% |  | 99.6 | 99.6 | 99.6 | 99.7 | Stable | 6800 µg/mL | 3.00 | No change at ambient light; | XRPD after storage [2, 8]: minor changes observed in |
| C=CC(=O)Nc1cc(Nc2ncc(C(=O)OC(C)C)c(-c3cn(C)c4ccccc34)n2)c(OC)cc1N(C)CCN(C)C [Succinate, isopropyl 2-((5-acrylamido-4-((2-(dimethylamino)ethyl) (methyl)amino)-2-methoxyphenyl)amino)-4-(1-methyl-1H-indol-3-yl)pyrimidine-5-carboxylate succinate] |  | No change under all storage |  |  |  | 99.7 | Stable | 1900 µg/mL |  |  | GVS (Hygroscopicity) ([1]; succinate): 1.3%; Purity, 40° C./75% RH ([2]; succinate): 99.6; Purity, 80° C. ([2]; succinate): 99.6; Purity, Ambient light ([2]; ambient light, succinate): 99.6; overall response rate (ORR) (best response) ([4]; 26 patients with EGFR exon 20 insertion mutations, 95% CI: 33.37%, 73.41%): 53.8%; disease control rate (DCR) ([4]; 26 patients with EGFR exon 20 insertion mutations, 95% CI: 69.85%, 97.55%): 88.5%; confirmed partial response (PR) [4, 9]: 7; unconfirmed PR awaiting confirmation [4, 9]: 6; patients with any TEAE leading to treatment discontinuation [5]: 18.8%; patients with at least 1 Grade≥3 TEAE [5]: 58.4%; patients with at least 1 Grade≥3 TRAE [5]: 29.7%; patients with at least 1 TEAE [5]: 98.0%; patients with at least 1 TRAE [5]: 91.1%; patients with at least 1 treatment-emergent SAE [5]: 35.6%; patients with at least 1 treatment-related SAE [5]: 10.9%; pH at Saturation ([3]; succinate): 5.00 |
| C=CC(=O)Nc1cc(Nc2ncc(C(=O)OC(C)C)c(-c3cn(C)c4ccccc34)n2)c(OC)cc1N(C)CCN(C)C.Cl [HCl, isopropyl 2-((5-acrylamido-4-((2-(dimethylamino)ethyl) (methyl)amino)-2-methoxyphenyl)amino)-4-(1-methyl-1H-indol-3-yl)pyrimidine-5-carboxylate hydrochloride] | 10.% |  | 74.5 | 91.3 | 95.1 | 99.0 | Degradation | 5800 µg/mL | 6.47 | No change at ambient light; | XRPD after storage [2, 8]: changes observed in other 2 |
